Key:
[1] = molecular target: HBV C150Bo capsid (core) protein (Hepatitis B virus genotype D subtype adw, UniProt P03147, C107A/C48A/C61A/R150C); assay: HBV assembly assay (fluorescence quenching in vitro capsid assembly); assay type: biochemical; details: at about 10 μM; 50 mM Hepes pH 7.5, 150 mM NaCl, 1 hour at room temperature
[2] = test system: HBV replication in HepG2-2.2.15 cells; assay: Dot-blot assay (inhibition of HBV replication); assay type: cell-based; details: at 10 μM, six days, reduction in HBV DNA levels
Protocol: Compounds active in the HBV assembly assay are tested for their activity and toxicity in cellular assay. In the first anti-viral assay, the ability of compounds to inhibit HBV replication in an HBV-producing hepatoma cell line using the dot-blot method is evaluated.
Briefly, confluent monolayers of HepG2-2.2.15 cells are incubated with complete medium containing various concentrations of a test compound. Three days later, the culture medium is replaced with fresh medium containing the appropriately diluted test compound. Six days following the initial administration of the test compound, the cell culture supernatant is collected, and cell lysis is performed. The samples are applied onto Nylos membranes and DNA is immobilized to the membrane by UV cross-linking. After pre-hybridization, the HBV probe is added and the hybridization is performed overnight. The membranes are exposed to the Kodak films; antiviral activity is calculated from the reduction in HBV DNA levels (EC50). The EC50 for antiviral activity is calculated from the dose response curves of active compounds. Assay performance over time is monitored by the use of the standard positive control compounds ETV, BAY 41-4109, and HAP-1.
Selected compounds were tested for their activity and toxicity in cellular assay. In the first anti-viral assay, the ability of compounds to inhibit HBV replication in an HBV-producing hepatoma cell line using the dot-blot method was evaluated.
Confluent monolayers of HepG2-2.2.15 cells were incubated with complete medium containing various concentrations of a test compound. Three days later, the culture medium was replaced with fresh medium containing the appropriately diluted test compound. Six days following the initial administration of the test compound, the cell culture supernatant was collected, and cell lysis was performed. The samples were applied onto Nylos membranes and DNA was immobilized to the membrane by UV cross-linking. After pre-hybridization, the HBV probe was added and the hybridization was performed overnight. The membranes were exposed to the Kodak films; antiviral activity was calculated from the reduction in HBV DNA levels (EC50). The EC50 for antiviral activity was calculated from the dose response curves of active compounds. Assay performance over time was monitored by the use of the standard positive control compounds ETV, BAY 41-4109, and HAP-1.

Sequence of HBV C150Bo capsid (core) protein (P03147 1-150 C48A/C61A/C107A/R150C): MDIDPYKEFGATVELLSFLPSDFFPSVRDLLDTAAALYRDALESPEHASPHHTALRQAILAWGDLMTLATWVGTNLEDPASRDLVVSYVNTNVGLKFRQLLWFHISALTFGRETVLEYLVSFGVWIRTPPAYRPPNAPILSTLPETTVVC

SMILES | Activity (HBV assembly assay) [1] | Activity in dot-blot-assay [2]
O=C(Nc1ccc(F)c(F)c1)c1ccc(F)c(S(=O)(=O)N2CCC(O)C(F)(F)C2)c1 (stereo not drawn) [Compound 1733] | + (‘+’ indicates >50% activity at about 10 (μM)) | + (‘+’ indicates >50% activity at 10 (μM))
CCOc1ccc(C(=O)Nc2ccc(F)c(Cl)c2)cc1S(=O)(=O)N1CCC(O)C(F)(F)C1 (stereo not drawn) [Compound 1965] | + (‘+’ indicates >50% activity at about 10 (μM)) | –
O=C(Nc1ccc(F)c(Cl)c1)c1ccc(O)c(S(=O)(=O)N2CCC(O)C(F)(F)C2)c1 (stereo not drawn) [Compound 1963] | + (‘+’ indicates >50% activity at about 10 (μM)) | –
O=C(Nc1cc(F)c(F)c(F)c1)c1ccc(F)c(S(=O)(=O)N2CCC(O)C(F)(F)C2)c1 (stereo not drawn) [Compound 1732] | + (‘+’ indicates >50% activity at about 10 (μM)) | + (‘+’ indicates >50% activity at 10 (μM))
O=C(Nc1ccc(F)c(Cl)c1)c1ccc(CF)c(S(=O)(=O)N2CCC(O)C(F)(F)C2)c1 (stereo not drawn) [Compound 1995] | + (‘+’ indicates >50% activity at about 10 (μM)) | + (‘+’ indicates >50% activity at 10 (μM))
O=C(Nc1ccc(F)c(Cl)c1)c1ccc(F)c(S(=O)(=O)N2CCC(O)C(F)(F)C2)c1 (stereo not drawn) [Compound 1734] | + (‘+’ indicates >50% activity at about 10 (μM)) | + (‘+’ indicates >50% activity at 10 (μM))
O=C(Nc1ccc(F)c(Cl)c1)c1ccc(OC2CC2)c(S(=O)(=O)N2CCC(O)C(F)(F)C2)c1 (stereo not drawn) [Compound 1967] | + (‘+’ indicates >50% activity at about 10 (μM)) | –
COc1ccc(C(=O)Nc2ccc(F)c(Cl)c2)cc1S(=O)(=O)N1CCC(O)C(F)(F)C1 (stereo not drawn) [Compound 1964] | + (‘+’ indicates >50% activity at about 10 (μM)) | –
